Results as given in patent publication US20250340574A1, “MODULATORS OF CYSTIC FIBROSIS TRANSMEMBRANE CONDUCTANCE REGULATOR” (Vertex Pharmaceuticals Incorporated, priority 2022, published 2025).
pEC50: −log10 of the molar value.

How the values were obtained:
[1] = target: T1, CFTR (F508del/MF-HBE cells) (Homo sapiens, UniProt P13569, DEL508-508); test: Ussing chamber assay of CFTR-mediated short-circuit currents, Assay B (0.00001 μM to 25 μM, 12 concentrations); type: cell-based; conditions: with 33 nM potentiator and 18 μM Tezacaftor, 20% human serum; for Emax: 18-24 hours, read-out: B Max activity (%)
T1 construct: human bronchial epithelial (HBE) cells derived from CF subjects heterozygous for F508del and a minimal function CFTR mutation (F508del/MF-HBE); endogenous in cells; host or cells: Primary human bronchial epithelial cells from CF subjects (F508del/MF genotype), differentiated at an air-liquid interface
T1 sequence (P13569 with tags, fused parts or gaps DEL508-508): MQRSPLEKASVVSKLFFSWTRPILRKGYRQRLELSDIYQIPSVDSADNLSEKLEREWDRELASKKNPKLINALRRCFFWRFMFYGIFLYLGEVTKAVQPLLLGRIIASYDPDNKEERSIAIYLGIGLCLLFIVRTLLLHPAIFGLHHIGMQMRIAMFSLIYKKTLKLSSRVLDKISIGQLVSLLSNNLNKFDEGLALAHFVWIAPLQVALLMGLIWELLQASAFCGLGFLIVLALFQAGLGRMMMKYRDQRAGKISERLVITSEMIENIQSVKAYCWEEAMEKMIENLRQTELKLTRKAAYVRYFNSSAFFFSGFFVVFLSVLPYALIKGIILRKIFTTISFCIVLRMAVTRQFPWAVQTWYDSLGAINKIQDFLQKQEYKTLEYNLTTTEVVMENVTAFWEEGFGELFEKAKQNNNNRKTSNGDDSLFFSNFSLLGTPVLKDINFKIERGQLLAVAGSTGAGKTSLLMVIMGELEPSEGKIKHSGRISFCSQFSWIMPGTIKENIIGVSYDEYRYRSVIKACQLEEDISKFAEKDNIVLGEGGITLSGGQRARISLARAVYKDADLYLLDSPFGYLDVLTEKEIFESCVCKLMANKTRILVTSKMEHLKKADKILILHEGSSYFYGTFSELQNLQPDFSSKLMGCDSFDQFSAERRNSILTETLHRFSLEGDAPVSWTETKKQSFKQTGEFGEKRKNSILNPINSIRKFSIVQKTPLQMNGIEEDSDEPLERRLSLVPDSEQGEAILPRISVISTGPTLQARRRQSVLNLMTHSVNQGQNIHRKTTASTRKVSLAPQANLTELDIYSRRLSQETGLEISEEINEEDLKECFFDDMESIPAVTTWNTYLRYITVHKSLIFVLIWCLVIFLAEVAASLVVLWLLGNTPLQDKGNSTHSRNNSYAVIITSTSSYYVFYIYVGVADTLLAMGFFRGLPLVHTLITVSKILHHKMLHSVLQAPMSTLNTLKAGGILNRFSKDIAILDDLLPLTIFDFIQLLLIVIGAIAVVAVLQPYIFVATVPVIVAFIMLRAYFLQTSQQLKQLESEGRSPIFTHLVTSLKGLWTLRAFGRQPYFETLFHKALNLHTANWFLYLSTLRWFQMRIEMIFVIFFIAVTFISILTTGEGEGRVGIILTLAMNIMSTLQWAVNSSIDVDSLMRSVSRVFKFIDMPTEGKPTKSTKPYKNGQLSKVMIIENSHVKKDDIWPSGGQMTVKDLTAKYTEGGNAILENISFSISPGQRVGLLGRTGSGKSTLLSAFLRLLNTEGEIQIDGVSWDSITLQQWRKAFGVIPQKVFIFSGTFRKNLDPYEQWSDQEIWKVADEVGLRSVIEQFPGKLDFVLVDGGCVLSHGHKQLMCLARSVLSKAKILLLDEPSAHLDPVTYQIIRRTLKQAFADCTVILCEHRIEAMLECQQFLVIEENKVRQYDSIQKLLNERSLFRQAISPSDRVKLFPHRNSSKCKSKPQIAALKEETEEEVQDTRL
Procedure: (§1) Ussing chamber experiments were performed using human bronchial epithelial (HBE) cells derived from CF subjects heterozygous for F508del and a minimal function CFTR mutation (F508del/MF-HBE) and cultured as previously described (Neuberger T, Burton B, Clark H, Van Goor F Methods Mol Biol 2011:741:39-54). After four days the apical media was removed, and the cells were grown at an air liquid interface for >14 days prior to use.
(§2) To isolate the CFTR-mediated short-circuit (ISC) current, F508del/MF-HBE grown on Costar® Snapwell™ cell culture inserts were mounted in an Ussing chamber and the transepithelial ISC was measured under voltage-clamp recording conditions (Vhold=0 mV) at 37° C. The basolateral solution contained (in mM) 145 NaCl, 0.83 K2HPO4, 3.3 KH2PO4, 1.2 MgCl2, 1.2 CaCl2, 10 Glucose, 10 HEPES (pH adjusted to 7.4 with NaOH) and the apical solution contained (in mM) 145 NaGluconate, 1.2 MgCl2, 1.2 CaCl2, 10 glucose, 10 HEPES (pH adjusted to 7.4 with NaOH) and 30 μM amiloride to block the epithelial sodium channel. Forskolin (20 μM) was added to the apical surface to activate CFTR, followed by apical addition of a CFTR inhibitor cocktail consisting of BPO, GlyH-101, and CFTR inhibitor 172 (each at 20 μM final assay concentration) to specifically isolate CFTR currents. The CFTR-mediated ISC (μA/cm^2) for each condition was determined from the peak forskolin response to the steady-state current following inhibition.
(§3) The activity of the CFTR corrector compounds on the CFTR-mediated ISC was determined in Ussing chamber studies as described above. The F508del/MF-HBE cell cultures were either incubated with the corrector compounds at a range of concentrations in combination with 33 nM (6R,12R)-17-amino-12-methyl-6,15-bis(trifluoromethyl)-13,19-dioxa-3,4,18-triazatricyclo[12.3.1.12,5]nonadeca-1(18),2,4,14,16-pentaen-6-ol and 18 μM Tezacaftor or were incubated with the corrector compounds at a single fixed concentration of 1 μM in combination with 44 nM (6R,12R)-17-amino-12-methyl-6,15-bis(trifluoromethyl)-13,19-dioxa-3,4,18-triazatricyclo[12.3.1.12,5]nonadeca-1(18),2,4,14,16-pentaen-6-ol and 18 μM Tezacaftor for 18-24 hours at 37° C. and in the presence of 20% human serum. The concentration of corrector compounds with 44 nM or 33 nM (6R,12R)-17-amino-12-methyl-6,15-bis(trifluoromethyl)-13,19-dioxa-3,4,18-triazatricyclo[12.3.1.12,5]nonadeca-1(18),2,4,14,16-pentaen-6-ol and 18 μM Tezacaftor during the 18-24 hours incubations was kept constant throughout the Ussing chamber measurement of the CFTR-mediated ISC to ensure compounds were present throughout the entire experiment. The efficacy and potency of the putative F508del correctors was compared to that of the known Vertex corrector, (14S)-8-[3-(2-{Dispiro[2.0.2.1]heptan-7-yl}ethoxy)-1H-pyrazol-1-yl]-12,12-dimethyl-2λ^6-thia-3,9,11,18,23-pentaazatetracyclo[17.3.1.111,14.05,10]tetracosa-1(22),5,7,9,19(23),20-hexaene-2,2,4-trione, in combination with 18 μM Tezacaftor and 1 μM Ivacaftor.
(§4) • Assay A: 0.1 μM to 25 μM, 6 concentrations • Assay B: 0.00001 μM to 25 μM, 12 concentrations • Assay C: 0.026 μM to 25 μM, 6 concentrations • Assay D: Activity at single concentration of 1 μM

[2] = target: T1, CFTR (F508del/MF-HBE cells); test: Ussing chamber assay of CFTR-mediated short-circuit currents, Assay A (0.1 μM to 25 μM, 6 concentrations); type: cell-based; conditions: with 33 nM potentiator and 18 μM Tezacaftor, 20% human serum; for Emax: 18-24 hours, read-out: A Max activity (%)
Procedure: as §1, §2, §3, §4

Row | Structure (SMILES) | Emax [1] [%] | pEC50 [1] | Emax [2] [%] | pEC50 [2]
1 | Cc1cccc(C)c1-c1nc2nc(c1C)OC[C@@H](CC(C)(C)C)N(Cc1cnc3nc(C(C)C)n(C)c3n1)C(=O)c1cccc(c1)S(=O)(=O)N2 [Compound I-167] | > 60 | > 6.00 | – | –
2 | Cc1cccc(C)c1-c1cc2nc(n1)NS(=O)(=O)c1cccc(c1)C(=O)N(Cc1cnc3cc(C(C)C)n(C)c3n1)[C@H](C[C@H]1CCCCO1)CO2 [Compound I-3] | – | – | > 60 | > 6.00
3 | Cc1cccc(C)c1-c1cc2nc(n1)NS(=O)(=O)c1cccc(c1)C(=O)N(C(=O)c1cncc(N(C)C3CCC3)n1)[C@H](CC(C)(C)C)CO2 [II-32] | – | – | > 60 | > 6.00
4 | Cc1cccc(C)c1-c1cc2nc(n1)NS(=O)(=O)c1cccc(c1)C(=O)N(Cc1nc3cc(C(C)C)oc3cc1F)[C@H](CC(C)(C)C)CO2 [Compound I-63] | – | – | > 60 | > 6.00
5 | Cc1cccc(C)c1-c1cc2nc(n1)NS(=O)(=O)c1cccc(c1)C(=O)N(Cc1nc3c(cc1F)cc(C(C)C)n3C)[C@H](CC1(C)CC1)CO2 [Compound I-80] | – | – | > 60 | > 6.00
6 | Cc1cccc(C)c1-c1cc2nc(n1)NS(=O)(=O)c1cccc(c1)C(=O)N(Cc1cnc3oc(C(C)C)cc3n1)C(COC1CCC1)CO2 (single isomer, unassigned) [Compound I-49, 11-(cyclobutoxymethyl)-6-(2,6-dimethylphenyl)-12-[(6-isopropylfuro[2,3-b]pyrazin-2-yl)methyl]-2,2-dioxo-9-oxa-2λ^6-thia-3,5,12,19-tetrazatricyclo[12.3.1.14,8]nonadeca-1(18),4(19),5,7,14,16-hexaen-13-one] | – | – | > 60 | > 6.00
7 | Cc1cccc(C)c1-c1cc2nc(n1)NS(=O)(=O)c1cccc(c1)C(=O)N(Cc1nc3cc(C(C)C)oc3cc1F)[C@@H](COC1CCC1)CO2 (stereo in doubt) [Compound I-95] | – | – | > 60 | > 6.00
8 | Cc1cccc(C)c1-c1cc2nc(n1)NS(=O)(=O)c1cccc(c1)C(=O)N(Cc1nc3c(cc1F)nc(C(C)C)n3C)[C@H](CC(C)(C)C)CO2 [Compound I-69] | – | – | > 60 | > 6.00
9 | Cc1cccc(C)c1-c1cc2nc(n1)NS(=O)(=O)c1cccc(c1)C(=O)N(Cc1cnc3oc(C(C)C)c(C#N)c3n1)[C@H](COC(C)C)CO2 [Compound I-91] | – | – | > 60 | > 6.00
10 | Cc1cccc(C)c1-c1cc2nc(n1)NS(=O)(=O)c1cccc(c1)C(=O)N(Cc1cnc3nc(C(C)C)n(C)c3n1)[C@H](COC(C)C)CO2 [Compound I-90] | – | – | > 60 | > 6.00
11 | Cc1cccc(C)c1-c1cc2nc(n1)NS(=O)(=O)c1cccc(c1)C(=O)N(Cc1cnc3oc(C(C)C)c(C#N)c3n1)[C@H](CC13CC(C1)C3)CO2 [Compound I-85] | – | – | > 60 | > 6.00
12 | Cc1cccc(C)c1-c1cc2nc(n1)NS(=O)(=O)c1cccc(c1)C(=O)N(Cc1nc3c(C(C)C)cccc3o1)[C@H](CC(C)(C)C)CO2 [III-7] | – | – | > 60 | > 6.00

The remaining lines, values ahead:

Row | Emax [1] [%] | pEC50 [1] | Emax [2] [%] | pEC50 [2] | Structure (SMILES)
13 | > 60 | 4.52 to 5.52 | – | – | Cc1cccc(C)c1-c1cc2nc(n1)NS(=O)(=O)c1cccc(c1)C(=O)N(Cc1cnc3oc(C4CC4)cc3n1)[C@H](CC1CCCC1)CO2 [Compound I-61]
14 | > 60 | 4.52 to 5.52 | – | – | Cc1cccc(C)c1-c1cc2nc(n1)NS(=O)(=O)c1cccc(c1)C(=O)N(Cc1cnc3oc(C4CCC4)cc3n1)[C@H](COC(C)C)CO2 [Compound I-138]
15 | – | – | > 60 | > 6.00 | Cc1cccc(C)c1-c1cc2nc(n1)NS(=O)(=O)c1cccc(c1)C(=O)N(Cc1cnc3cc(C(C)C)n(C)c3n1)[C@@H](CCC1(C)CC1)CO2 (stereo in doubt) [Compound I-72]
16 | – | – | > 60 | > 6.00 | Cc1cccc(C)c1-c1cc2nc(n1)NS(=O)(=O)c1cccc(c1)C(=O)N(Cc1cnc3oc(C4CC4)cc3n1)[C@H](CC(C)(C)C)CO2 [Compound I-20]
17 | – | – | > 60 | > 6.00 | Cc1cccc(C)c1-c1cc2nc(n1)NS(=O)(=O)c1cccc(c1)C(=O)N(Cc1cnc3oc(C4CC4)cc3n1)[C@H](CCC1(C)CCC1)CO2 [Compound I-47]
18 | – | – | – | > 6.00 | Cc1cccc(C)c1-c1cc2nc(n1)NS(=O)(=O)c1cccc(c1)C(=O)N(Cc1cnc3c(n1)CC(C(C)C)O3)[C@H](CC1(C)CC1)CO2 (single isomer, unassigned) [III-14]
19 | – | – | > 60 | > 6.00 | Cc1cccc(C)c1-c1cc2nc(n1)NS(=O)(=O)c1cccc(c1)C(=O)N(Cc1cnc3oc(C4CC4)cc3n1)[C@@H](COC1CCC1)CO2 (stereo in doubt) [Compound I-58]
20 | – | – | > 60 | > 6.00 | Cc1cccc(C)c1-c1cc2nc(n1)NS(=O)(=O)c1cccc(c1)C(=O)N(Cc1cnc3oc(C(C)C)c(C)c3n1)[C@H](CC1CCCCC1)CO2 [Compound I-12]
21 | – | – | > 60 | > 6.00 | Cc1cccc(C)c1-c1cc2nc(n1)NS(=O)(=O)c1cccc(c1)C(=O)N(Cc1cnc3oc(C(C)C)c(C)c3n1)[C@H](CCC1(C)CCC1)CO2 [Compound I-34]
22 | – | – | > 60 | > 6.00 | Cc1cccc(C)c1-c1cc2nc(n1)NS(=O)(=O)c1cccc(c1)C(=O)N(Cc1cnc3oc(C)c(C4CC4)c3n1)[C@H](CCC(C)(C)C)CO2 [Compound I-27]
23 | – | – | > 60 | > 6.00 | Cc1cccc(C)c1-c1cc2nc(n1)NS(=O)(=O)c1cccc(c1)C(=O)N(Cc1cnc3oc(C(C)C)c(C)c3n1)[C@H](CC1(C)CC1)CO2 [Compound I-17]
24 | – | – | > 60 | > 6.00 | Cc1cccc(C)c1-c1cc2nc(n1)NS(=O)(=O)c1cccc(c1)C(=O)N(Cc1cnc3oc(C4CC4)cc3n1)[C@H](CC1C3(CC3)C13CC3)CO2 [Compound I-102]
25 | – | – | > 60 | > 6.00 | Cc1cccc(C)c1-c1cc2nc(n1)NS(=O)(=O)c1cccc(c1)C(=O)N(Cc1cnc3oc(C4CC4)cc3n1)[C@H](CC1CCCCC1)CO2 [Compound I-42]
26 | – | – | > 60 | > 6.00 | Cc1cccc(C)c1-c1cc2nc(n1)NS(=O)(=O)c1cccc(c1)C(=O)N(Cc1cnc3oc(C4CC4)cc3n1)[C@H](CC(C)(C)F)CO2 [Compound I-51]
27 | – | – | > 60 | > 6.00 | Cc1cccc(C)c1-c1cc2nc(n1)NS(=O)(=O)c1cccc(c1)C(=O)N(Cc1cnc3oc(C(C)C)c(C)c3n1)[C@H](CC1CCCC1)CO2 [Compound I-64]
28 | – | – | > 60 | > 6.00 | Cc1cccc(C)c1-c1cc2nc(n1)NS(=O)(=O)c1cccc(c1)C(=O)N(Cc1cnc3c(n1)CC(C(C)C)O3)[C@H](CC1(C)CC1)CO2 (single isomer, unassigned) [III-13]
29 | – | – | > 60 | > 6.00 | Cc1cccc(C)c1-c1cc2nc(n1)NS(=O)(=O)c1cccc(c1)C(=O)N(Cc1cnc3oc(C(C)C)cc3n1)[C@H](C[C@H]1CCCCO1)CO2 [Compound I-7]
30 | – | – | 30 to 60 | > 6.00 | Cc1cccc(C)c1-c1cc2nc(n1)NS(=O)(=O)c1cccc(c1)C(=O)N(Cc1cnc3oc(C(C)C)cc3n1)[C@H](CC1CCOCC1)CO2 [Compound I-30, (11R)-6-(2,6-dimethylphenyl)-12-[(6-isopropylfuro[2,3-b]pyrazin-2-yl)methyl]-2,2-dioxo-11-(tetrahydropyran-4-ylmethyl)-9-oxa-2λ^6-thia-3,5,12,19-tetrazatricyclo[12.3.1.14,8]nonadeca-1(18),4(19),5,7,14,16-hexaen-13-one]
